{
  "source": "paper PMC8231556",
  "about": "“Inhibiting Endothelial Cell Function in Normal and Tumor Angiogenesis Using BMP Type I Receptor Macrocyclic Kinase Inhibitors” (Cancers, 2021)",
  "assay_in_all_cases": "radiometric kinase profiling (33 PanQinase)",
  "type_in_all_cases": "biochemical",
  "key": {"ACVR1B": {"target": "T1, ACVR1B (Homo sapiens, UniProt P36896)", "T1 construct": "purchased Proqinase, Germany", "T1 sequence (P36896 24-505)": "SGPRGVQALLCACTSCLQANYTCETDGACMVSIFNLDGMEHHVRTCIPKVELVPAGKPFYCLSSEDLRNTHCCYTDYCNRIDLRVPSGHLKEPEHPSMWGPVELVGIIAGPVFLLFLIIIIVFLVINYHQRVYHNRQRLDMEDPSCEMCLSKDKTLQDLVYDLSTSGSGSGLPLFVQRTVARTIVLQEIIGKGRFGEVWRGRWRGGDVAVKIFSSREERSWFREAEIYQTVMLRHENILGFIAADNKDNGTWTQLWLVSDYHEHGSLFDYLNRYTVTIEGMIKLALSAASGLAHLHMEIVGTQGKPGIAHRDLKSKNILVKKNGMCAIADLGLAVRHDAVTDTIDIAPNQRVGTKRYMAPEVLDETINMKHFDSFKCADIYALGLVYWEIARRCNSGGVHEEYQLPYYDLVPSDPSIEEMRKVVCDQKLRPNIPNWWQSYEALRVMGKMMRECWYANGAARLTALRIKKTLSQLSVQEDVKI", "details": "read-out: Inhibitory effect (%) ACVR1B", "how_it_was_run": "(§1)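 Enzyme/substrate mixes were incubated with [γ-33P]-ATP and compound (added as a 0.1 μM solution in 10% DMSO) at 30 °C for 60 min, then stopped with H3PO4 and washed with NaCl. 33P incorporation was scintillation-counted, and residual activity (%) was normalized to untreated control and background.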"}, "CAMK1D": {"target": "T2, CAMK1D (Homo sapiens, UniProt Q8IU85)", "T2 construct": "purchased Proqinase, Germany", "T2 sequence (Q8IU85 whole entry)": "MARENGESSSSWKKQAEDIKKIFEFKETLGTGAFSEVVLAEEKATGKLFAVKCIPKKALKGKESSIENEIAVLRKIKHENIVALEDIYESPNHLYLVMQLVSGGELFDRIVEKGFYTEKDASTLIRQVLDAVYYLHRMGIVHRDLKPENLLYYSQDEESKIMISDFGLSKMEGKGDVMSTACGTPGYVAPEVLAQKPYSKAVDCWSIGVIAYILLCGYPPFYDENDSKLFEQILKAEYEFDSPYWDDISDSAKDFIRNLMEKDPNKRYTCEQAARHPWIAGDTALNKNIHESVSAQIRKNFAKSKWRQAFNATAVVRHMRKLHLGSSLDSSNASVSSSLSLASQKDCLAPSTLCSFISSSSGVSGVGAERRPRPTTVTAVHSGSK", "details": "read-out: Inhibitory effect (%) CAMK1D", "how_it_was_run": "as §1"}, "CDK1_cyclinA2": {"target": "T3, CDK1_cyclinA2 (Homo sapiens, UniProt P06493)", "T3 construct": "purchased Proqinase, Germany", "T3 sequence (P06493 whole entry)": "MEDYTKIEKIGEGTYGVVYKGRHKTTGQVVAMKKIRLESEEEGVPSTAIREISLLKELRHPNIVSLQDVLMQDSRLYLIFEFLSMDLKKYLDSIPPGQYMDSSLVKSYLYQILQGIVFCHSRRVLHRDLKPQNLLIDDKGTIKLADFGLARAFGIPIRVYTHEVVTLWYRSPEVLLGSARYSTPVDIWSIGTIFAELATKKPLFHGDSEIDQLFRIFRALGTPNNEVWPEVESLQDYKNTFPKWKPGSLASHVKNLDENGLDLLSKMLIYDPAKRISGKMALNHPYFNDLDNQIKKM", "T3 sequence (P20248 whole entry partner)": "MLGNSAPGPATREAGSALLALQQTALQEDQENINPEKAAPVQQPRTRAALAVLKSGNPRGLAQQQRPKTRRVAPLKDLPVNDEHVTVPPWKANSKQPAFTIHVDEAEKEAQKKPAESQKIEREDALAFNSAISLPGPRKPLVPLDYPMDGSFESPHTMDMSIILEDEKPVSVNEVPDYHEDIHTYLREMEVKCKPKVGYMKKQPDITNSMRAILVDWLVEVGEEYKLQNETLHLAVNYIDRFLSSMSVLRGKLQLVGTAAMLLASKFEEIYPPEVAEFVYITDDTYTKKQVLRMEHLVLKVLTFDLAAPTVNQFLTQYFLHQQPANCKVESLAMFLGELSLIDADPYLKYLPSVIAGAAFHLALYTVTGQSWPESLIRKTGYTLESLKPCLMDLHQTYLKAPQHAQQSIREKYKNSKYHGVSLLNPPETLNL", "details": "read-out: Inhibitory effect (%) CDK1_cyclinA2", "how_it_was_run": "as §1"}, "DNAPK": {"target": "T4, DNAPK (Homo sapiens, UniProt P78527)", "T4 construct": "purchased Proqinase, Germany", "details": "read-out: Inhibitory effect (%) DNAPK", "how_it_was_run": "as §1"}, "EGFR": {"target": "T5, EGFR (Homo sapiens, UniProt P00533)", "T5 construct": "purchased Proqinase, Germany", "T5 sequence (P00533 25-1210)": "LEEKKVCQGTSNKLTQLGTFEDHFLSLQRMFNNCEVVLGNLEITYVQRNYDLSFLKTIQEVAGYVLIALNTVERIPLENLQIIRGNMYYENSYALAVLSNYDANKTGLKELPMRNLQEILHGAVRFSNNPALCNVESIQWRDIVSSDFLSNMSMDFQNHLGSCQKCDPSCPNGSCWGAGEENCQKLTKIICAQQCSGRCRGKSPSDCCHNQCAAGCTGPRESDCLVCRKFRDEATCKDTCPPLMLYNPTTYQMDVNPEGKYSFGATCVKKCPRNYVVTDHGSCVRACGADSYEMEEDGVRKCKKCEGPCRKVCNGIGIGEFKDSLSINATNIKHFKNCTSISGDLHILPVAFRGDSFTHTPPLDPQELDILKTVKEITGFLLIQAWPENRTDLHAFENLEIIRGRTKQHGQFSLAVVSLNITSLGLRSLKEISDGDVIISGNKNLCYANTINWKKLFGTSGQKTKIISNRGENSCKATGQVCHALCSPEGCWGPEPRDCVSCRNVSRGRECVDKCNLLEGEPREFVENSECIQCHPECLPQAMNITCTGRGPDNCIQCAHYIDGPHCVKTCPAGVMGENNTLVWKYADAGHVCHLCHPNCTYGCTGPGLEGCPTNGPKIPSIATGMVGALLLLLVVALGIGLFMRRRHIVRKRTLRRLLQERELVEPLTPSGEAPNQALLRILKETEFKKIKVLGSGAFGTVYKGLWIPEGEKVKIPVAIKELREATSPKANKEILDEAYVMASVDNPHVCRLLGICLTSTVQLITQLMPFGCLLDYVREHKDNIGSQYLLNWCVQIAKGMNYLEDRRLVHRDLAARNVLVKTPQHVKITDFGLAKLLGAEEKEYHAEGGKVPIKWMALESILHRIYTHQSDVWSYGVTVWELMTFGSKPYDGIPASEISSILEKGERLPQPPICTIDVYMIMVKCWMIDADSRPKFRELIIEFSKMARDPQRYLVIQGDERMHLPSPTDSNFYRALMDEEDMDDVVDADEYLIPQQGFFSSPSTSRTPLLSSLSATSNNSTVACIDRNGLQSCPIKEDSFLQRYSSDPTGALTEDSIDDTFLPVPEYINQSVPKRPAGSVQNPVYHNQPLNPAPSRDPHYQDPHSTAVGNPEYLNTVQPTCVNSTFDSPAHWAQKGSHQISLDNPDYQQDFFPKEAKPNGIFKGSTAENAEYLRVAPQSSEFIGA", "details": "read-out: Inhibitory effect (%) EGFR", "how_it_was_run": "as §1"}, "EPHA2": {"target": "T6, EPHA2 (Homo sapiens, UniProt P29317)", "T6 construct": "purchased Proqinase, Germany", "T6 sequence (P29317 24-976)": "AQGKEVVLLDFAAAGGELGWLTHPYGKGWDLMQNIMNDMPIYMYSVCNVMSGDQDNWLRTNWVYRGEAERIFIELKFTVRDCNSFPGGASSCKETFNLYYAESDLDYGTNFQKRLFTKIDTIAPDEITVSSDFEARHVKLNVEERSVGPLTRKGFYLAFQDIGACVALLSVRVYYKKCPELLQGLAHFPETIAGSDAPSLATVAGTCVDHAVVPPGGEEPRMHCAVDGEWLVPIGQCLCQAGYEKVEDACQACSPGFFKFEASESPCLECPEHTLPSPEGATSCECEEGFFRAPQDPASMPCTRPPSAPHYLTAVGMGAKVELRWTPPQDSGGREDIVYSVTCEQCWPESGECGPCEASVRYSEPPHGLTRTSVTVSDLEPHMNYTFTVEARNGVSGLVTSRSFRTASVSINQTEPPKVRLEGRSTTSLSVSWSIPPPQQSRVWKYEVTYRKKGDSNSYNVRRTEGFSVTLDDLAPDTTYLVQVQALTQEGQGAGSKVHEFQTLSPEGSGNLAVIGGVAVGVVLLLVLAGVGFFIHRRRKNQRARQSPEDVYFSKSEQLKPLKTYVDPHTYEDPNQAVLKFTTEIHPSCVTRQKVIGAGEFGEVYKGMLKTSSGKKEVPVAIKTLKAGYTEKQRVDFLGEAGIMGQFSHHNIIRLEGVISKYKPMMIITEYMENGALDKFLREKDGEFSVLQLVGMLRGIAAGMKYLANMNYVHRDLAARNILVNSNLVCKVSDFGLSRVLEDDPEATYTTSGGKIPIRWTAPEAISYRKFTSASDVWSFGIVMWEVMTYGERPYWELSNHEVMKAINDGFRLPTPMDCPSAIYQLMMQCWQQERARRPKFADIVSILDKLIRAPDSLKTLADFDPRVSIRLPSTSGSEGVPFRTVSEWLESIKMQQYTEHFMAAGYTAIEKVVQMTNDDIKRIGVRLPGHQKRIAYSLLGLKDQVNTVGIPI", "details": "read-out: Inhibitory effect (%) EPHA2", "how_it_was_run": "as §1"}, "IGF1R": {"target": "T7, IGF1R (Homo sapiens, UniProt P08069)", "T7 construct": "purchased ProQinase (33PanQinase Activity Assay)", "T7 sequence (P08069 31-1367)": "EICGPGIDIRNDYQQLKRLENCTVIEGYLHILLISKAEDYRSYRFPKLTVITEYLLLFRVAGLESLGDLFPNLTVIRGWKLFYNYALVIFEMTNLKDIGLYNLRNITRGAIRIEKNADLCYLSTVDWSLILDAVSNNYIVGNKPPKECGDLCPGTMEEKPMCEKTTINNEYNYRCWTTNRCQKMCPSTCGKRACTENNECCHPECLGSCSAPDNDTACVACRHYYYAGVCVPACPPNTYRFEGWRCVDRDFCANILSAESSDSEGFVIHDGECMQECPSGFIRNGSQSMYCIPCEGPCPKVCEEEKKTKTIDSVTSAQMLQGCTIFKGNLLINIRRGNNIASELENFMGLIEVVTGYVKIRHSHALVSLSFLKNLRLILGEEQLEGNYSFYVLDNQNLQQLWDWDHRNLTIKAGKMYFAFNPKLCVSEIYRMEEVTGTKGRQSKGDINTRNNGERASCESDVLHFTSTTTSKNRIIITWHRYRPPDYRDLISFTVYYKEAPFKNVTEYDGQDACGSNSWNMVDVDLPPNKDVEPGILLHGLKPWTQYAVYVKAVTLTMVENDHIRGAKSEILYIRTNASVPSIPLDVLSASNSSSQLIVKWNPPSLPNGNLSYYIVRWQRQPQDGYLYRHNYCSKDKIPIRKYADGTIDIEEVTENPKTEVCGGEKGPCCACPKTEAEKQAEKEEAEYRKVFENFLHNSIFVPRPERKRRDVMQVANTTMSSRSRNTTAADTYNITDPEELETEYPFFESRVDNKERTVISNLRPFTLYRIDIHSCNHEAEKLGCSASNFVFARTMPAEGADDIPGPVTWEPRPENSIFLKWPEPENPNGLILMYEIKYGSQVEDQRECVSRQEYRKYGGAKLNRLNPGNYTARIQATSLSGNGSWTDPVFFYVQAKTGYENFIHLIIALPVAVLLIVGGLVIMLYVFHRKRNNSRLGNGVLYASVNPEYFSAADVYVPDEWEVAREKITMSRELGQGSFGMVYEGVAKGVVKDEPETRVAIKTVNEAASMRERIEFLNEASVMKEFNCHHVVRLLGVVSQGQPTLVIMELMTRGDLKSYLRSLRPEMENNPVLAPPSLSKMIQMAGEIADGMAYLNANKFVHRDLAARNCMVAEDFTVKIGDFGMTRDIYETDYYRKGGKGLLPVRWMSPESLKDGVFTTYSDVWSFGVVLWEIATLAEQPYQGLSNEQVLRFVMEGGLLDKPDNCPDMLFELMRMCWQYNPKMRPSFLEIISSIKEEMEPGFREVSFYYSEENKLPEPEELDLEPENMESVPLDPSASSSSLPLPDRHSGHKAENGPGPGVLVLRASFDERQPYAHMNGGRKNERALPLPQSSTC", "details": "read-out: Inhibitory effect (%) IGF1R", "how_it_was_run": "as §1"}, "IKBKB": {"target": "T8, IKBKB (Homo sapiens, UniProt O14920)", "T8 construct": "purchased ProQinase (33PanQinase Activity Assay)", "T8 sequence (O14920 1-756)": "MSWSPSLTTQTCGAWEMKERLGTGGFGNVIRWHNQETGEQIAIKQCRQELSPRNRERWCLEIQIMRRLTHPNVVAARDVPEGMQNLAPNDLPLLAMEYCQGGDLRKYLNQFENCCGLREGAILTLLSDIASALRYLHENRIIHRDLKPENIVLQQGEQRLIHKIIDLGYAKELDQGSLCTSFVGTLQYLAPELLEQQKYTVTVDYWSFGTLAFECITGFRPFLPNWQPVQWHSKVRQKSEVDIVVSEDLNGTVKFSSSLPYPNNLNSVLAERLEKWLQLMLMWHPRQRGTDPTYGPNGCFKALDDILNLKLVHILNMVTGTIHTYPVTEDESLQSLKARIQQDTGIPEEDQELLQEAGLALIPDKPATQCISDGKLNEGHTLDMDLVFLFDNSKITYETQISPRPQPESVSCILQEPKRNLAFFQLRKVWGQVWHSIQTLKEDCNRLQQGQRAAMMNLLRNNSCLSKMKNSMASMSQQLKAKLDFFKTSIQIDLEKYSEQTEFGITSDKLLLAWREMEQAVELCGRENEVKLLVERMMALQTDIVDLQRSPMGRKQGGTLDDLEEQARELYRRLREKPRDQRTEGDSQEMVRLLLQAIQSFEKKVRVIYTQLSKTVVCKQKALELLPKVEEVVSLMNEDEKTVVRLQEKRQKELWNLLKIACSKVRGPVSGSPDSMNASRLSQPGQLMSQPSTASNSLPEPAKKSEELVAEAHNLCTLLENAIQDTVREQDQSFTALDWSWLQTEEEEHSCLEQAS", "details": "read-out: Inhibitory effect (%) IKBKB", "how_it_was_run": "as §1"}, "PHKG2": {"target": "T9, PHKG2 (Homo sapiens, UniProt P15735)", "T9 construct": "purchased ProQinase (33PanQinase Activity Assay)", "T9 sequence (P15735 1-406)": "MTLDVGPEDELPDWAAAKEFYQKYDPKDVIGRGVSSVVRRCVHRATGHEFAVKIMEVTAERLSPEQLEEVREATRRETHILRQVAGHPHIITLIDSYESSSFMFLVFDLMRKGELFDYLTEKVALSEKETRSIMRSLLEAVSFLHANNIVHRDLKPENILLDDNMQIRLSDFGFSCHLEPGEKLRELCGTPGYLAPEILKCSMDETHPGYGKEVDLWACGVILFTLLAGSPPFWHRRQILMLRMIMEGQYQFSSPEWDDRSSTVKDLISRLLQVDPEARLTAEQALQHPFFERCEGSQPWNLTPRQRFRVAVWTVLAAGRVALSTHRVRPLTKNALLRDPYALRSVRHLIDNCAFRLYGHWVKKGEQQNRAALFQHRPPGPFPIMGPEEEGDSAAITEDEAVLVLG", "details": "read-out: Inhibitory effect (%) PHKG2", "how_it_was_run": "as §1"}},
  "data": [
    {"smiles": "c1ccc2c(-c3cnn4cc(-c5ccc(N6CCNCC6)cc5)cnc34)ccnc2c1", "note": "[LDN-193189, reference compound]", "values": [
      {"measurement": "inhibition at 0.1 µM", "setting": "ACVR1B", "value": 23.9, "unit": "%"},
      {"measurement": "inhibition at 0.1 µM", "setting": "CAMK1D", "value": 4.59, "unit": "%"},
      {"measurement": "inhibition at 0.1 µM", "setting": "CDK1_cyclinA2", "value": -2.18, "unit": "%"},
      {"measurement": "inhibition at 0.1 µM", "setting": "DNAPK", "value": -29.6, "unit": "%"},
      {"measurement": "inhibition at 0.1 µM", "setting": "EGFR", "value": 2.46, "unit": "%"},
      {"measurement": "inhibition at 0.1 µM", "setting": "EPHA2", "value": -17.2, "unit": "%"},
      {"measurement": "inhibition at 0.1 µM", "setting": "IGF1R", "value": 8.78, "unit": "%"},
      {"measurement": "inhibition at 0.1 µM", "setting": "IKBKB", "value": 1.34, "unit": "%"},
      {"measurement": "inhibition at 0.1 µM", "setting": "PHKG2", "value": -23.6, "unit": "%"}
    ]},
    {"smiles": "CN1CCC(=O)NCCNc2ccn3ncc(c3n2)-c2cccc(c2)C1", "note": "[OD29]", "values": [
      {"measurement": "inhibition at 0.1 µM", "setting": "ACVR1B", "value": 5.71, "unit": "%"},
      {"measurement": "inhibition at 0.1 µM", "setting": "CAMK1D", "value": -7.41, "unit": "%"},
      {"measurement": "inhibition at 0.1 µM", "setting": "CDK1_cyclinA2", "value": 23.7, "unit": "%"},
      {"measurement": "inhibition at 0.1 µM", "setting": "DNAPK", "value": 12.9, "unit": "%"},
      {"measurement": "inhibition at 0.1 µM", "setting": "EGFR", "value": -8.91, "unit": "%"},
      {"measurement": "inhibition at 0.1 µM", "setting": "EPHA2", "value": 10.4, "unit": "%"},
      {"measurement": "inhibition at 0.1 µM", "setting": "IGF1R", "value": 13.9, "unit": "%"},
      {"measurement": "inhibition at 0.1 µM", "setting": "IKBKB", "value": -9.1, "unit": "%"},
      {"measurement": "inhibition at 0.1 µM", "setting": "PHKG2", "value": -1.93, "unit": "%"}
    ]},
    {"smiles": "CN1CCc2cccc(c2)Nc2nccc(n2)N2CCCc3cc(ccc32)C1", "note": "[OD16]", "values": [
      {"measurement": "inhibition at 0.1 µM", "setting": "ACVR1B", "value": 7.78, "unit": "%"},
      {"measurement": "inhibition at 0.1 µM", "setting": "CAMK1D", "value": -5.9, "unit": "%"},
      {"measurement": "inhibition at 0.1 µM", "setting": "CDK1_cyclinA2", "value": -8.88, "unit": "%"},
      {"measurement": "inhibition at 0.1 µM", "setting": "DNAPK", "value": -8.88, "unit": "%"},
      {"measurement": "inhibition at 0.1 µM", "setting": "EGFR", "value": -13, "unit": "%"},
      {"measurement": "inhibition at 0.1 µM", "setting": "EPHA2", "value": -21.9, "unit": "%"},
      {"measurement": "inhibition at 0.1 µM", "setting": "IGF1R", "value": -39.5, "unit": "%"},
      {"measurement": "inhibition at 0.1 µM", "setting": "IKBKB", "value": 1.32, "unit": "%"},
      {"measurement": "inhibition at 0.1 µM", "setting": "PHKG2", "value": 1.87, "unit": "%"}
    ]}
  ]
}
